From patent US4549988A, “3H-2-Benzazepines” (Hoffmann-La Roche Inc., priority 1983, dated 1985) come the findings set out here.

Data set [1] can be described thus: Toxicity, 24 hr. LD50 (PO). Particulars: in vivo.
The test system of data set [2] is metrazol convulsive seizures. The experiment in a line: antimetrazol test (oral compound, protection from metrazol-induced convulsive seizures). In kind it is in vivo. Particulars: Mus musculus, 1 h, mice, one hour before metrazol s.c., Miller-Tainter method. As to the method: Periodically a metrazol standardization test precedes the assay to ascertain the quantity of metrazol, administered to control mice, sufficient to induce convulsive seizures in all animals. This is usually 125 mg/kg. In the antimetrazol test, a compound is administered orally to groups of four mice at various dose levels. One hour later, metrazol (at a dose level previously determined in the standardization test) is administered subcutaneously and the animals are observed for protection from convulsive seizures. Results are recorded as the number of animals protected against convulsions. The dose at which 50% of the animals are protected from convulsive seizures is expressed as the ED50. On active compounds, 8 animals employed per dose group. The ED50 is calculated by the Miller-Tainter method (Proc.Soc.Exp.Med. and Bio., 57, 261, 1944).

The target of another data set is ^3 H--Imipramine Binding. The experiment in a line: imipramine binding assay (3H-imipramine, rat cortex homogenate). Details: species or system Sprague Dawley male rats. Particulars: 15 minutes at room temperature, nonspecific binding by 10^-3 M imipramine. The method, then: IMIPRAMINE BINDING ASSAY METHOD
Sprague Dawley male rats (180 g) are decapitated and the brains immediately placed on ice. Cortex is dissected and homogenized in 8 volumes of 0.25M sucrose. Homogenate is centrifuged at 2900 rpm (1000×g) in a Sorvall RCLB centrifuge with a SM 24 head. Supernatant is decanted and polytronized for 60 seconds using a Brinkmann Polytron (Model PT-10) at setting 5. Dilutions of imipramine hydrochloride are made in ehtanol (1:5). Each assay sample contains: 1.8 ml of Krebs Ringer Buffer, 20 μl of imipramine or other drugs and 20 μl of ^3 H-imipramine ([…]). The ^3 H-imipramine is from New England Nuclear #NET 576, 20-40 curies/millimole. Imipramine (10^-3 M) is used to define nonspecific binding. Incubation is for 15 minutes at room temperature. Samples are then put in ice bath for 5 minutes. Each sample is filtered on a 45-place manifold (E. Sandbek Co., Airville, Pa.). Filter is a Whatman GF/B. Filters are placed in 13 ml of aquasol and shaken for 2 hours, then the radioactivity trapped on the filter is determined by liquid scintillation spectrometry.

On to `[O-][N+]1=C(c2ccccc2)c2cc(Cl)ccc2C=CC1` [8-Chloro-1-phenyl-3H-2-benzazepine-2-oxide], for which, in data set [1], the LD50 at 24 h was more than 1000 mg/kg. This molecule came in with an ED50 in data set [2] of 5.2 mg/kg.
The molecule `Cl.Cl.NCC#CC1=CCN=C(c2ccccc2F)c2cc(Cl)ccc21` [8-Chloro-5-(1-amino-2-propyn-3-yl)-1-(2-fluorophenyl)-3H-2-benzazepine dihydrochloride] yielded an IC50 at ^3 H--Imipramine Binding of 20 µM. This molecule registered an LD50 at 24 h in data set [1] of 500 mg/kg. This molecule showed an ED50 in data set [2] of 3 mg/kg.
In turn, `Cl.Cl.NCC#CC1=CCN=C(c2ccccc2)c2cc(Cl)ccc21` [8-Chloro-5-(1-amino-2-propyn-3-yl)-1-phenyl-3H-2-benzazepine dihydrochloride] showed an IC50 at ^3 H--Imipramine Binding of 11 µM. Also, in data set [1], the LD50 at 24 h is 500 mg/kg. The same molecule came in with an ED50 in data set [2] of 32 mg/kg.
On to `CN(C)CC#CC1=CCN=C(c2ccccc2F)c2cc(Cl)ccc21.Cl.Cl` [8-Chloro-5-(1-dimethylamino-2-propyn-3-yl)-1-(2-fluorophenyl)-3H-2-benzazepine dihydrochloride], for which the LD50 at 24 h in data set [1] was more than 1000 mg/kg. Also, it took a dose of 19 mg/kg to reach the 50% effect level in data set [2] (ED50).
`CN(C)CCCN1c2ccccc2CCc2ccccc21` [Imipramine, reference compound]: the half-inhibitory concentration (IC50) at ^3 H--Imipramine Binding turned out to be 7.1 µM.

The LD50 is the dose expected to kill half of the subjects tested. As usually defined, the ED50 is the dose that gives a 50% effect, or the effect in half of the subjects. Read a high ED50 as weaker potency. In general, IC50 refers to the midpoint of a concentration-inhibition curve. A lower IC50 goes with greater potency.
